Consider one molecule from patent US20210101881A1 (Ancureall Pharmaceutical (Shanghai) Co., Ltd., priority 2018, published 2021).

This series relates to human MOLM13 leukemia cells. The series is described as follows: In vivo growth inhibition test of tumor cell (MOLM13 subcutaneous model). As to the method: Test Example 4. In Vivo Growth Inhibition Test of Tumor Cell
Experimental animals: Bab/c immunodeficiency mice, female, 6 weeks old (weighing about 20 grams), purchased from Shanghai Sippr-BK laboratory animal Co. Ltd., raised by the Animal Center of Shanghai Fudan University, approved by the Ethics Committee of Shanghai Fudan University. The breeding environment is SPF level.
Test samples: Compound 140 of the present invention (purity: 99%), solid powder, stored at 4-8° C.
Cell and animal modelling: human MOLM13 leukemia cells were cultured in RPMI 1640 medium containing 10% fetal bovine serum. Cells in the exponential growth phase were collected (centrifuge at 1700 rpm for 3 minutes), washed once with 1×PBS, and resuspended to obtain a final concentration of 5×10^7/ml cells. Single-point inoculation of 0.1 ml was carried out subcutaneously on the right back.
When the average tumor volume reached ˜400 mm^3, the mice were randomly grouped according to tumor size. The test was divided into solvent control group and administration group, with 3 mice in each group. 0.01 ml of solution per gram of mouse weight was intragastrically administered (p.o.) once a day. The tumor was measured three times a week. Calculation formula for tumor volume: long diameter×short diameter^2/2. When the tumor volume of the control group reached 2000 mm^3, the experiment was ended, and molecular pathological analysis of tumor tissue was performed. The efficacy was evaluated based on the relative tumor growth inhibition rate (TGI), and the safety was evaluated based on the change of animal weight.
Formulation of test samples: An appropriate amount of compound 140 was weighed. An appropriate amount of ultrapure water was added and mixed well.
Methanesulfonic acid was then added to obtain a clear solution, and 4M NaOH was added dropwise to adjust pH to 4.3. Ultrapure water was added to obtain a constant volume and a final concentration of 5 mg/ml.
The solvent control group was an aqueous methanesulfonic acid solution (pH 4.3).
T/C % represents the relative tumor growth rate, that is, the percentage ratio of relative tumor volume or tumor weight of the administration group to that of the control group at a certain time point. T and C respectively represent the relative tumor volume (RTV) of the administration group and the control group at a certain time point. T/C % is calculated as follows:
wherein TRTV: the average RTV of the administration group; CRTV: the average RTV of the solvent control group: RTV=Vt/V0, V0 represents the tumor volume of the animal at the time of grouping, and Vt represents the tumor volume of the animal after administration.
Statistical analysis: All test results were expressed as mean tumor volume±SEM (mean standard error). The tumor volume data on Day 9 after the start of administration was selected for statistical analysis among different groups. The significant difference between the relative tumor volume of the administration group and that of the control group was determined by independent sample T test method. All data were analyzed with SPSS 18.0. p<0.05 means that there is a significant difference.

[1] abbreviates: MOLM13 model, 50 mg/kg p.o. once a day, Day 9 after the start of administration.

Each structure is given as a SMILES string.

On to `NC(=O)c1cn(-c2nc(Nc3cccc(N4CCN(C5CCOCC5)CC4)c3)ncc2F)c2ccccc12` [Compound 140, 1-(5-fluoro-2-{3-[4-(tetrahydro-pyran-4-yl)-piperazin-1-yl]-phenylamino}-pyrimidin-4-yl)-1H-indole-3-carboxamide], for which, where the note is “50 mg/kg p.o. once a day”, the “tolerability of the drug” value was “well tolerated” and the “weight of the mouse during the administration” value is “remained stable”. Also, under setting [1], the “TGI (%)” value is 91.29% and the “TIC (%)” value was 8.71%. The “Tumor volume (mm^3)” value (MOLM13 model, 50 mg/kg p.o. once a day, Day 9 after the start of administration, mean ± SEM) was 164.8 ± 12 mm^3. Besides, the “growth of human acute myeloid leukemia MOLM13 cells in vivo” value (dose of 50 mg/kg) was “effectively inhibit the growth”.
